The test system of data set [1] is SGLT2 mRNA. Description: SGLT2 mRNA in kidney of Balb/c mice, twenty 1-10-1 MOE gapmers, PPS 534 and PPS 553 (Table 74). Format: in vivo, mouse. To be noted: i.p. 350 nmol/kg twice per week for two weeks. The procedure: Twenty 1-10-1 MOE gapmers that are complementary to human/monkey/mouse/rat SGLT2 were designed, synthesized and tested in vivo for suppression of SGLT2 mRNA levels in kidney. Data are averages from two experiments in which male 6-week old Balb/c mice were administered intraperitoneal injections of 350 nmol/kg of oligonucleotide, twice per week, over a period of two weeks (a total of four injections). Mice were sacrificed 48 hours following the last administration and evaluated for SGLT2 mRNA levels in kidney. SGLT2 mRNA levels were determined by quantitative real-time PCR analysis according to standard procedures, using two different PCR primer probe sets, primer probe set (PPS) 534 and PPS 553. SGLT2 mRNA levels were normalized to cyclophilin mRNA levels, which were also measured by quantitative real-time PCR.

The test system of data set [2] is PCSK9 mRNA. Format: cell-based, human. The settings on record: Hep3B cells, 100 nM, relative to untreated control cells; for % Inhib: 0 = no reduction observed.
In data set [3] the test system is PCSK9 mRNA. Description: Dose-dependent antisense inhibition of PCSK9 in Hep3B cells, EC50 (Table 76). Format: cell-based, human. The method, then:
When cells reached appropriate confluency, they were treated with oligonucleotide using LIPOFECTIN® as described. […] Cells were treated and data were obtained in duplicate or triplicate. […] Cells were harvested 16-24 hours after oligonucleotide treatment.
Short antisense compounds targeted to a PCSK9 nucleic acid were tested in a dose response experiment Hep3B cells. After the treatment period, RNA was isolated from the cells and PCSK9 mRNA levels were measured by quantitative real-time PCR, as described herein. PCSK9 mRNA levels were normalized to cyclophilin mRNA levels, as measured by real-time PCR using a cyclophilin-specific primer probe set. Results are presented as percent inhibition of PCSK9, relative to untreated control cells. […] As illustrated in the following table, PCSK9 mRNA levels were reduced in a dose-dependent manner.

[4] abbreviates: primer probe set 534, normalized to cyclophilin.
Where [5] appears, read: primer probe set 553, normalized to cyclophilin.

Strand notation (5' to 3'): a small letter for the sugar, then the base; units joined by * are phosphorothioate-linked, units joined directly phosphodiester-linked; [ ] holds rarer units or linkages, { } end groups; capitals alone tell only the bases. e = 2'-O-(2-methoxyethyl) (MOE); [5mC] = 5-methylcytosine; d = 2'-deoxy (DNA)

The values that follow come from patent US8372967B2, “Compounds and methods for modulating expression of GCCR” (Isis Pharmaceuticals, Inc., priority 2006, dated 2013).

On to “370717 (antisense eT*dA*dG*d[5mC]*d[5mC]*dA*d[5mC]*d[5mC]*dA*dA*d[5mC]*eT) [compound 370717]”, for which the “% change in SGLT2 mRNA vs saline” value in data set [1] (setting [4]) is recorded as −84.4 % Saline; in data set [1] (setting [5]) it was −84.3 % Saline.

In the case of “379684 (antisense eT*dG*dT*d[5mC]*dA*dG*d[5mC]*dA*dG*dG*dA*eT) [compound 379684]”, the “% change in SGLT2 mRNA vs saline” value in data set [1] (setting [4]) is recorded as −45.0 % Saline; in data set [1] (setting [5]) it was −43.2 % Saline.

Take “379685 (antisense eT*dG*dA*d[5mC]*d[5mC]*dA*dG*d[5mC]*dA*dG*dG*eA) [compound 379685]”: the “% change in SGLT2 mRNA vs saline” value in data set [1] (setting [4]) is given as −10.3 % Saline; in data set [1] (setting [5]), −20.5 % Saline.

For “379686 (antisense eA*d[5mC]*d[5mC]*dA*d[5mC]*dA*dA*dG*d[5mC]*d[5mC]*dA*eA) [compound 379686]”, the “% change in SGLT2 mRNA vs saline” value is −71.9 % Saline in data set [1] (setting [4]) and −75.1 % Saline in data set [1] (setting [5]).

Turning to “379687 (antisense eG*dA*dT*dG*dT*dT*dG*d[5mC]*dT*dG*dG*e[5mC]) [compound 379687]”, the “% change in SGLT2 mRNA vs saline” value in data set [1] (setting [4]) is reported as −47.1 % Saline; in data set [1] (setting [5]) it was −52.1 % Saline.

As for “379688 (antisense e[5mC]*d[5mC]*dA*dA*dG*d[5mC]*d[5mC]*dA*d[5mC]*dT*dT*eG) [compound 379688]”, the “% change in SGLT2 mRNA vs saline” value in data set [1] (setting [4]) is recorded as −62.6 % Saline; in data set [1] (setting [5]), −70.4 % Saline.

As for “379689 (antisense eA*dG*dA*dG*d[5mC]*dG*d[5mC]*dA*dT*dT*d[5mC]*e[5mC]) [compound 379689]”, the “% change in SGLT2 mRNA vs saline” value in data set [1] (setting [4]) was −17.5 % Saline; in data set [1] (setting [5]), −30.4 % Saline.

For “379690 (antisense eA*d[5mC]*dA*dG*dG*dT*dA*dG*dA*dG*dG*e[5mC]) [compound 379690]”, the “% change in SGLT2 mRNA vs saline” value in data set [1] (setting [4]) is −18.9 % Saline; in data set [1] (setting [5]), −22.5 % Saline.

On to “379691 (antisense eA*dG*dA*dT*d[5mC]*dT*dT*dG*dG*dT*dG*eA) [compound 379691]”, for which the “% change in SGLT2 mRNA vs saline” value was −35.0 % Saline in data set [1] (setting [4]) and −48.6 % Saline in data set [1] (setting [5]).

Turning to “379692 (antisense eT*dG*dT*dT*d[5mC]*d[5mC]*dA*dG*d[5mC]*d[5mC]*d[5mC]*eA) [compound 379692]”, the “% change in SGLT2 mRNA vs saline” value in data set [1] (setting [4]) is −88.1 % Saline; in data set [1] (setting [5]) it was −88.5 % Saline.

Regarding “379693 (antisense e[5mC]*dA*dT*dG*dG*dT*dG*dA*dT*dG*d[5mC]*e[5mC]) [compound 379693]”, the “% change in SGLT2 mRNA vs saline” value in data set [1] (setting [4]) is −51.6 % Saline; in data set [1] (setting [5]) it was −59.9 % Saline.

For the substance “379694 (antisense eG*dA*d[5mC]*dG*dA*dA*dG*dG*dT*d[5mC]*dT*eG) [compound 379694]”, the entries for the “% change in SGLT2 mRNA vs saline” value in data set [1] (setting [4]) and in data set [1] (setting [5]) were −42.1 % Saline and −54.4 % Saline, respectively.

Regarding “379695 (antisense eG*dG*dA*d[5mC]*dA*d[5mC]*d[5mC]*dG*dT*d[5mC]*dA*eG) [compound 379695]”, the figures for the “% change in SGLT2 mRNA vs saline” value in data set [1] (setting [4]) and in data set [1] (setting [5]) were −52.5 % Saline and −64.1 % Saline, respectively.

For “379696 (e[5mC]*dA*dG*d[5mC]*dT*dT*d[5mC]*dA*dG*dG*dT*eA; antisense) [compound 379696]”, the figures for the “% change in SGLT2 mRNA vs saline” value in data set [1] (setting [4]) and in data set [1] (setting [5]) were −24.6 % Saline and −36.2 % Saline, respectively.

On to “379697 (e[5mC]*dT*dG*dG*d[5mC]*dA*dT*dG*dA*d[5mC]*d[5mC]*eA; antisense) [compound 379697]”, for which the “% change in SGLT2 mRNA vs saline” value in data set [1] (setting [4]) was −32.0 % Saline; in data set [1] (setting [5]), −46.3 % Saline.

Turning to “379698 (eG*d[5mC]*dA*dG*d[5mC]*d[5mC]*d[5mC]*dA*d[5mC]*d[5mC]*dT*e[5mC]) [compound 379698]”, the “% change in SGLT2 mRNA vs saline” value in data set [1] (setting [4]) is −11.8 % Saline; in data set [1] (setting [5]), −27.0 % Saline.

Take “379699 (eG*dG*d[5mC]*dA*dT*dG*dA*dG*d[5mC]*dT*dT*e[5mC]) [compound 379699]”: the “% change in SGLT2 mRNA vs saline” value in data set [1] (setting [4]) is reported as −83.5 % Saline; in data set [1] (setting [5]), −85.8 % Saline.

For “379700 (e[5mC]*d[5mC]*dA*dG*d[5mC]*dA*dT*dG*dA*dG*dT*e[5mC]; antisense) [compound 379700]”, the “% change in SGLT2 mRNA vs saline” value in data set [1] (setting [4]) is −2.8 % Saline; in data set [1] (setting [5]), −16.4 % Saline.

For the substance “379701 (e[5mC]*d[5mC]*dA*dT*dG*dG*dT*dG*dA*dA*dG*eA) [compound 379701]”, the results for the “% change in SGLT2 mRNA vs saline” value in data set [1] (setting [4]) and in data set [1] (setting [5]) were −0.3 % Saline and −11.9 % Saline, respectively.

For “379702 (eG*d[5mC]*dA*d[5mC]*dA*d[5mC]*dA*dG*d[5mC]*dT*dG*e[5mC]) [compound 379702]”, the “% change in SGLT2 mRNA vs saline” value in data set [1] (setting [4]) is −87.8 % Saline; in data set [1] (setting [5]), −89.5 % Saline.

For “379703 (eG*d[5mC]*d[5mC]*dG*dG*dA*dG*dA*d[5mC]*dT*dG*eA; antisense) [compound 379703]”, the “% change in SGLT2 mRNA vs saline” value was −44.2 % Saline in data set [1] (setting [4]) and −45.9 % Saline in data set [1] (setting [5]).

For the substance “400327 (antisense eG*eT*d[5mC]*d[5mC]*d[5mC]*d[5mC]*dA*dA*dA*dG*dT*d[5mC]*e[5mC]*e[5mC]) [compound 400327]”, the “% Inhibition Range” value in data set [2] was 30-40%. Besides, the “% Inhib” value in data set [2] is 36%. Besides, the “% Inhibition” value is recorded as 5% in data set [3] (5 nM); 37% in data set [3] (10 nM); 23% in data set [3] (20 nM); 49% in data set [3] (40 nM); 43% in data set [3] (80 nM); 55% in data set [3] (160 nM).

In the case of “400330 (antisense e[5mC]*e[5mC]*dA*d[5mC]*dG*dT*dG*dG*dG*d[5mC]*dA*dG*e[5mC]*eA) [compound 400330]”, in data set [2], the “% Inhibition Range” value is 40-50%. In addition, in data set [2], the “% Inhib” value is 43%. The “% Inhibition” value was 8% in data set [3] (5 nM); 32% in data set [3] (10 nM); 40% in data set [3] (20 nM); 69% in data set [3] (40 nM); 82% in data set [3] (80 nM); 71% in data set [3] (160 nM).

For “400331 (antisense eG*e[5mC]*d[5mC]*dA*d[5mC]*dG*dT*dG*dG*dG*d[5mC]*dA*eG*e[5mC]) [compound 400331]”, in data set [2], the “% Inhibition Range” value is reported as 30-40%. Besides, in data set [2], the “% Inhib” value is given as 35%. The “% Inhibition” value is listed as 29% in data set [3] (5 nM); 40% in data set [3] (10 nM); 47% in data set [3] (20 nM); 63% in data set [3] (40 nM); 75% in data set [3] (80 nM); 82% in data set [3] (160 nM).

Regarding “400352 (antisense e[5mC]*eA*d[5mC]*d[5mC]*d[5mC]*dT*d[5mC]*dA*d[5mC]*d[5mC]*d[5mC]*d[5mC]*e[5mC]*eA) [compound 400352]”, the “% Inhibition Range” value in data set [2] is on record as 20-30%. Besides, in data set [2], the “% Inhib” value amounted to 29%. In addition, the “% Inhibition” value in data set [3] (5 nM) is 7%; in data set [3] (10 nM), 16%; in data set [3] (20 nM) it was 40%; in data set [3] (40 nM), 44%; in data set [3] (80 nM), 63%; in data set [3] (160 nM), 64%.

On to “400353 (antisense eA*e[5mC]*dA*d[5mC]*d[5mC]*d[5mC]*dT*d[5mC]*dA*d[5mC]*d[5mC]*d[5mC]*e[5mC]*e[5mC]) [compound 400353]”, for which, in data set [2], the “% Inhibition Range” value was 10-20%. The “% Inhib” value in data set [2] turned out to be 19%. Moreover, the “% Inhibition” value in data set [3] (5 nM) was 15%; in data set [3] (10 nM), 27%; in data set [3] (20 nM), 23%; in data set [3] (40 nM), 43%; in data set [3] (80 nM), 54%; in data set [3] (160 nM), 48%.
